Assay results: US6562864B1, “Catechin multimers as therapeutic drug delivery agents” (priority 1999, dated 2003)
Like-named read-outs stand apart in the source and are kept apart here. Values belong to the compound of their own block, whether it stands above or below them.

Tests used:
rat aortic rings = assay: Contraction and endothelium dependent relaxation of rat aortic rings; details: mean (±SEM)
Protocol: Male Sprague-Dawley rats (200-250 g) were euthanized with an overdose of sodium pentobarbital (100 mg/kg, i.p.) and bled. The thoracic aorta was excised and cleaned and rings 3-4 mm in length were cut, taking care not to disturb the endothelium The rings were suspended in tissue baths containing a physiologic salt solution. The solution was bubbled continuously with O2/CO2 (95%/5%), and maintained at 37° C. Contraction activity was recorded on a Grass polygraph. After equilibration for at least 1 h under 1.5 g of tension, tissues were contracted submaximally (approximately 80% of Emax) with 1 μM phenylephrine. […] This concentration of acetylcholine is sufficient to produce maximum endothelium dependent relaxation in intact rings.
Rings were washed with physiological salt solution three times over the next 45 min. prior to the subsequent testing. Beginning with a concentration determined in preliminary experiments to be below the threshold for relaxation, and increased until a relaxation of approximately 15% was achieved (relative to the relaxation induced by 3 μM acetycholine).

human platelets [1] = assay: Human platelet aggregation trial with platelet activating factor (PAF) as aggregating agent; assay type: cell-based
Protocol: (§1) Human platelet aggregation trials, using PAF and thrombin as aggregating agents, were conducted with gallic acid, catechin and amidated catechin multimers (made according to the process of Example 1). The protocol was as follows: Test compounds (50 μM gallic acid, 100 μM catechin and 3 μM amidated catechin multimer) were dissolved in water and 10 μl of sample was added to 1 ml aliquots of human platelets to give the final estimated vessel content concentration of 3 μM.^1 Next, human platelets at a concentration of 1×10^−7/ml were preincubated for ten minutes at 37° C. with either vehicle (contol) or with 3 μM of the amino-catechin multimer test compound. Then, either platelet activating factor (5×10^−10 μM) or thrombin (0.05 mg/ml) were added and aggregation was monitored over the next 10 minutes in a PACKS-4 Platelet Aggregation Chromogenic Kinetic System (Helena Lab., Beaumont, Tex.). ^1 The molar concentration of total product was 10 μM. […] For molar calculations, the molecular weight of the amino-catechin was presumed to be 300 daltons.

human platelets [2] = assay: Human platelet aggregation trial with thrombin as aggregating agent; assay type: cell-based
Protocol: as §1

[3] = Preliminary ex-vitro trials: cholesterol solubility in human plasma
Text: Limonene is commonly thought of as a solvent, having a KB value of 67.

EC50 (rat aortic rings; rat aortic rings contracted with 1 μM phenylephrine, read-out: EC50 for EDR (endothelium dependent relaxation)): 120 ± 60 nM
Structure (SMILES): CC(=O)OCC[N+](C)(C)C [acetylcholine]

Structure (SMILES): O.Oc1cc(O)c2c(c1)O[C@H](c1ccc(O)c(O)c1)[C@@H](O)C2 [catechin]
inhibition of human platelet aggregation caused by platelet activating factor (human platelets [1]; 100 μM): no inhibition | inhibition of human platelet aggregation caused by thrombin (human platelets [2]; 100 μM): no inhibition

Structure (SMILES): O=C(O)c1cc(O)c(O)c(O)c1 [gallic acid]
inhibition of human platelet aggregation caused by platelet activating factor (human platelets [1]; 50 μM): no inhibition | inhibition of human platelet aggregation caused by thrombin (human platelets [2]; 50 μM): no inhibition

Structure (SMILES): C=C(C)C1CC=C(C)CC1 (centres unmarked) [limonene, 4-isopropenyl-1-methylcyclohexene]
rate of plasma metabolizing excess cholesterol ([3]; minimum rate): ≥ 4 % per hour | increase of the rate of solubility of cholesterol ([3]; over a one hour period): 24%

EC50 (rat aortic rings; rat aortic rings, read-out: EC50 value for phenylephrine (contractile effect)): 140 ± 20 nM
Structure (SMILES): CNC[C@H](O)c1cccc(O)c1 [phenylephrine]
